Test results taken from patent US12390435B2, “Electrophiles and electrophile pro-drugs as RAD51 inhibitors” (University of Pittsburgh—Of the Commonwealth System of …, priority 2018, dated 2025).

Legend:
RAD51 and ABL core = target: T1, RAD51 and ABL core (Homo sapiens, UniProt Q06609); experiment: In vitro RAD51-ABL binding assay; assay type: biochemical; settings: purified proteins, 0, 100 or 500 nM, 1 h
T1 construct: His; made in house; host or cells: E. coli BL21(DE3)pLysS
Method: FIGS. 3A-3I. […] FIG. 3A. […] FIG. 3B. […] FIG. 3C. […] Three independent experiments were quantified and analyzed by one-way ANOVA * p<0.05. FIG. 3D. […] FIG. 3E. […] FIG. 3F. […] Purified RAD51 and ABL core proteins were incubated with OA-NO2 at 0, 100 or 500 nM for 1 h and ABL was precipitated. The amount of bound RAD51 was detected by immunoblot. FIG. 3G. […] RAD51 interactions with ABL and phosphorylated RAD51 Y315 were probed by IP and immunoblot. FIG. 3H. […] Cells were incubated with biotinylated NO2-OA and then lysates were precipitated with streptavidin coated agarose and detected by immunoblot. FIG. 3I.
Recombinant His-tagged RAD51 in the pET21a vector were transformed into E. coli BL21(DE3)pLysS cells (EMD Millipore) and purified.

[1] = test system: NHEJ (EJ5-GFP, U2OS cells); experiment: EJ5-GFP NHEJ reporter assay in U2OS cells; assay type: cell-based; settings: 5 μM, 48 h flow cytometry or 68 h live-cell microscopy
Method: Measurements of NHEJ, HR, Alt-EJ and SSA assays were performed as previously described. HR activity was measured by counting GFP-positive cells by flow cytometry at the MWRI flow cytometry core using a BD LSRII (BD Biosciences). RAD51 overexpressing cells were generated by stable transfection of pLVX RAD51 IRES Neo and selection with geneticin (Invitrogen).
U2OS cells were prepared as above, but 5 h following compound treatment, cells were transferred into the Incucyte Zoom (Essen) live-cell imaging automated fluorescence microscope at 37° C. with 5% CO2. Cell confluence and green object count per mm2 were determined using Incucyte Zoom software. […]
NO2-OA-dependent effects on HR DNA repair were further investigated by utilizing a DRGFP reporter assay. This analysis quantifies intracellular recombination of an integrated cDNA cassette of two tandem non-fluorescent GFP constructs following introduction of an I-SceI cleavage to the system by measuring the fluorescent GFP protein that is produced following successful recombination. […] A novel strategy was used to measure the kinetics of changes in HR in live cells by using automated fluorescence microscopy to track the emergence of GFP positive cells over time in monolayers, as opposed to making static measurements of detached cells using flow cytometry. […]

[2] = test system: NF-κB transcriptional activity; experiment: NF-κB luciferase reporter; assay type: cell-based; settings: MDA-MB-231 and MDA-MB-468 cells, 5 μM 2 hr then TNFα 20 ng/mL 4 hr
Method: Luciferase-chemiluminescence-based analysis of NF-κB transcriptional activity was performed. MDA-MB-231 and MDA-MB-468 cells (˜70% confluence) in 12-well plates were transiently transfected with a NF-κB-luciferase reporter plasmid (Stratagene, La Jolla, CA) with Lipofectamine 3000. […] Each transfection was performed in triplicate. Luciferase activity was measured using the Dual-luciferase assay kit (Promega). Relative light units (RLU) were measured using a 96-well plate luminometer, according to the manufacturer's instructions (Victor II, PerkinElmer Life Sciences). Protein concentration was determined using the BCA Assay (Thermo Fisher Scientific). Data represents the ratio of treated samples to controls in the context of mean RLU/protein content, +/−SD. Three individual experiments were done, and statistical significance was determined by Kruskal-Wallis test followed by Dunn's post-test with Bonferroni corrections for multiple comparisons.

[3] = test system: MDA-MB-231 orthotopic tumor; experiment: Orthotopic MDA-MB-231 tumor model, 15 mg/kg gavage; assay type: in vivo, mice
Method: Animals used for this study were approved by and conducted according to the guidelines of the University of Pittsburgh IACUC. MDA-MB-231 cells (0.5×106) were injected into the mammary fat pad (left 4th gland) of 6-wk-old female nude mice in a volume of 20 μL sterile saline. When tumors reached an average volume of 100 mm^3, mice were treated with OA+vehicle (n=8), OA-NO2+vehicle (n=7), OA+talazoparib (0.3 mg/kg) (n=10) or OA-NO2 (15 mg/kg)+talazoparib (n=11). Tumor volume was measured by caliper over time in P-values: *<0.01, ***<0.001, ****<0.0001. The surgical procedure has been previously described.
Whether NO2-OA could also enhance TNBC DNA damage in vivo was also assessed. […] (FIG. 1B). […] This response became statistically significant after Grubbs outlier detection and elimination of OA treated mouse #2. The orthotopic tumor in OA mouse #2 was the largest tumor in the study, with necrosis potentially causing enhanced γH2AX levels.

MCF-10A cells = experiment: Western blot of cell cycle and apoptosis proteins; assay type: cell-based; settings: 5 μM, 24 hr
Method: (§1) Western blotting was performed. 20-60 μg of total lysates per lane were loaded on 7%, 10%, or 12% SDS-PAGE and transferred onto nitrocellulose or polyvinylidene difluoride membranes (Bio-Rad). The membranes were probed with primary antibodies against caspase-3, multi-drug resistance protein-1 (MRP1), poly [ADP ribose] polymerase-1 (PARP-1), ubiquitin, RelA; cyclin D1, p21, caspase-9, MRP4, IKKβ, pIKKβ, IκBα, or pIκBα (Cell Signaling); caspase-8 (R&D Systems). Samples were normalized to β-actin (Sigma-Aldrich) or GAPDH (Trevigen).

[4] = test system: MDA-MB-231 and MDA-MB-468 cells; experiment: Western blot of cell cycle and apoptosis proteins; assay type: cell-based; settings: 5 μM, 24 hr
Method: as §1

RAD51-ABL complex = target: T2, RAD51-ABL complex (Homo sapiens, UniProt Q06609); experiment: FLAG-RAD51/ABL immunoprecipitation in 293T cells; assay type: cell-based; settings: 0 to 5 μM, 1 h
T2 construct: expressed in transfected cells; host or cells: HEK 293T
T2 sequence (Q06609 whole entry, one chain of several): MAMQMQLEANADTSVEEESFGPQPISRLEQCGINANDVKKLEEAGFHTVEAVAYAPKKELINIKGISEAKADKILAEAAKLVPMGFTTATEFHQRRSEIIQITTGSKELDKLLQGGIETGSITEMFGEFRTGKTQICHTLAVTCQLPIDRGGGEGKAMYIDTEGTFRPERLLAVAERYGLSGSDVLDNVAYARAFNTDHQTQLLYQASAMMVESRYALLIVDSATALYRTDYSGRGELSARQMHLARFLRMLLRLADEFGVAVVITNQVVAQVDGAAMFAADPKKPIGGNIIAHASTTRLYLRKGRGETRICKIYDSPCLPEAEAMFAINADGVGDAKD
Method: Cell lysates and immunoprecipitation were prepared. For immunoprecipitation analysis, one million HEK 293T cells were transiently transfected with Fugene 6 (Promega) and 2 μg pQCXIP (EV) or FLAG-RAD51 pQCXIP plasmids and precipitated with Anti-FLAG M2 Affinity Gel (Sigma).
Cys319 is located in the RAD51 C-terminus within one of the two ABL-SH3 binding domains (amino acids 283-286 and 318-321). […] ABL regulates RAD51 activity via sequential phosphorylation of RAD51 Tyr54 and then Tyr315.

T1 sequence (Q06609 whole entry): as the sequence (Q06609 whole entry, one chain of several) above

SMILES: CCCCCCCCC(=CCCCCCCCC(=O)O)[N+](=O)[O-] [NO2-OA, 10-nitro-octadec-9-enoic acid]
- RAD51-ABL core complex formation (RAD51 and ABL core): abolished
- effect on NHEJ (GFP positive cells) [1]: no effect
- NF-κB-dependent transcription of luciferase [2]: significantly inhibited
- tumor γH2AX level by immunoblot ([3]; 15 mg/kg by gavage for 4 wk, versus OA): higher levels of γH2AX
- tumor growth rate ([3]; 15 mg/kg by gavage for 4 wk, versus OA treated controls): significantly decreased tumor growth rates
- tumor reduction / tumor volume in combination with talazoparib ([3]; NO2-OA 15 mg/kg + talazoparib 0.3 mg/kg versus either alone): significant greater tumor reduction compared to talazoparib or NO2-OA alone
- PARP-1 cleavage (MCF-10A cells): but not in MCF-10A cells
- PARP-1 cleavage [4]: promoted caspase-3-mediated cleavage of PARP-1
- caspase-8 and caspase-9 cleavage [4]: increased cleavage of caspase-8 and caspase-9
- p21 and cyclin D1 protein expression [4]: an increase in p21 and a decrease in cyclin D1 protein expression
- ABL bound to RAD51 (RAD51-ABL complex): decreased the amount of ABL bound to RAD51
- RAD51 Tyr315 phosphorylation (RAD51-ABL complex): inhibited
